Test results taken from US9113629B2, “4-amino-6-(4-substituted-phenyl)-picolinates and 6-amino-2-(4-substituted-phenyl)-pyrimidine-4-carboxylates and their use as herbicides” (DOW AGROSCIENCES LLC, priority 2013, dated 2015).

System: PHAMI: lesser canary grass (Phalaris minor)
Assay: Post-emergent Test III, herbicidal activity in wheat and barley
Format: in vivo
Details: for pest or weed control at 35 g/ha / pest or weed control at 70 g/ha / pest or weed control at 140 g/ha: Phalaris minor, post-emergence, 504 h, read-out: Visual Growth Reduction (%) 21 Days After Application PHAMI; for pest or weed control at 35 g/ha: 35 g ai/ha; for pest or weed control at 70 g/ha: 70 g ai/ha; for pest or weed control at 140 g/ha: 140 g ai/ha; for GR50 PHAMI / GR80 PHAMI: probit analysis, 21 days after application; for GR50 PHAMI: dose for growth reduction of 50 percent; for GR80 PHAMI: dose for growth reduction of 80 percent
In short: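 Plants at the second to third true-leaf stage, grown in a greenhouse at about 18/17 °C with a 14 h photoperiod, were sprayed post-emergence at 187 L/ha with the high rate and ½× to 1/16× serial dilutions in an acetone/DMSO/crop-oil/surfactant carrier. Injury was rated visually at 21 d on a 0–100% scale, and GR20–GR90 were derived by probit analysis.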

`Nc1c(F)c(-c2ccc(Br)cc2)nc(C(=O)O)c1Cl` [Compound 20] gave a pest or weed control at 35 g/ha of 85 to 94%, a pest or weed control at 70 g/ha of 85 to 94% and a pest or weed control at 140 g/ha of 85 to 94%. The “GR50 PHAMI” value was 5 g ai/ha and the “GR80 PHAMI” value was 25 g ai/ha.

Work on `N#Cc1ccc(-c2nc(C(=O)O)c(Cl)c(N)c2F)cc1` [Compound 39] yielded a pest or weed control at 35 g/ha of 0 to 29%, a pest or weed control at 70 g/ha of 30 to 44% and a pest or weed control at 140 g/ha of 45 to 59%. For the same compound, the “GR50 PHAMI” value was 118 g ai/ha and the “GR80 PHAMI” value was >140 g ai/ha.

In the case of `Nc1c(F)c(-c2ccc(I)cc2)nc(C(=O)O)c1Cl` [Compound 45, 4-amino-3-chloro-5-fluoro-6-(4-iodophenyl)picolinic acid], the pest or weed control at 35 g/ha is reported as 75 to 84%, the pest or weed control at 70 g/ha is reported as 85 to 94% and the pest or weed control at 140 g/ha is reported as 95 to 100%. The “GR50 PHAMI” value was 15 g ai/ha and the “GR80 PHAMI” value was 32 g ai/ha.

In the case of `COC(=O)c1nc(-c2ccc(OC(F)F)cc2)c(F)c(N)c1Cl` [Compound 85], the pest or weed control at 35 g/ha is reported as 0 to 29%, the pest or weed control at 70 g/ha is reported as 0 to 29% and the pest or weed control at 140 g/ha is reported as 0 to 29%. For the same compound, the “GR50 PHAMI” value was >140 g ai/ha and the “GR80 PHAMI” value was >140 g ai/ha.

In the case of `COC(=O)c1nc(-c2ccc(Br)c(F)c2F)cc(N)c1Cl` [Compound 114, methyl 4-amino-6-(4-bromo-2,3-difluorophenyl)-3-chloropicolinate], the pest or weed control at 35 g/ha is reported as 0 to 29%, the pest or weed control at 70 g/ha is reported as 0 to 29% and the pest or weed control at 140 g/ha is reported as 0 to 29%. For the same compound, the “GR50 PHAMI” value was >140 g ai/ha and the “GR80 PHAMI” value was >140 g ai/ha.

For `COC(=O)c1nc(-c2ccc(I)cc2)c(F)c(N)c1Cl` [Compound 118, Methyl 4-amino-6-(4-iodophenyl)-3-chloro-5-fluoropicolinate], the pest or weed control at 35 g/ha was 0 to 29%, the pest or weed control at 70 g/ha was 60 to 74% and the pest or weed control at 140 g/ha was 75 to 84%. For the same compound, the “GR50 PHAMI” value was 68 g ai/ha and the “GR80 PHAMI” value was 126 g ai/ha.
